Laboratory results: patent EP3046573B1, “AMYLIN ANALOGUES” (Zealand Pharma A/S, priority 2013, dated 2015)
Like-named read-outs stand apart in the source and are kept apart here. Numbered stars: 1 amine (or outer) side, 2 acyl side, 3 side chain; on linkers, the order of the positions; unused ones are H or OH. Bridge positions count the residues as written; N and C are the ends. Square brackets hold non-standard residues; d marks the D form. Peptide text beside a SMILES is read from it. * marks the point of attachment. C20 diacid = O=C(O)CCCCCCCCCCCCCCCCCCC(=O)*; γGlu = O=C(O)[C@H](CCC(=O)[*:2])N[*:1]; NMeI = CC[C@H](C)[C@H](NC)C(=O)O; hArg = N=C(N)NCCCC[C@H](N)C(=O)O; Sar = CNCC(=O)O

Molecular target: T1, human calcitonin receptor (hCTR2) (Homo sapiens, UniProt P30988)
T1 construct: expressed in transfected cells
T1 sequence (P30988 25-474): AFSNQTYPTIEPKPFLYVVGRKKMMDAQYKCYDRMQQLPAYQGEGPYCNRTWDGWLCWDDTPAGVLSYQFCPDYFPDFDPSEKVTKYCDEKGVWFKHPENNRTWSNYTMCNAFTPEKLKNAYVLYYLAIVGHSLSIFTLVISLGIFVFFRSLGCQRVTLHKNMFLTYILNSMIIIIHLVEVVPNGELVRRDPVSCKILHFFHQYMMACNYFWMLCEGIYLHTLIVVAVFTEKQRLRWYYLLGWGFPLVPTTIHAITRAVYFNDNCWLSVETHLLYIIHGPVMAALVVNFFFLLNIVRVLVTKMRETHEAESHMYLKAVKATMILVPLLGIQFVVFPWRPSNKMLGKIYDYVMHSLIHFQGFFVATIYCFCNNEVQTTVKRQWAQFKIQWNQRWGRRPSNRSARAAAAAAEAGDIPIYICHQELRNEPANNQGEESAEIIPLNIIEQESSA
Assay: hCTR2 assay: induction of cAMP (AlphaScreen cAMP Assay kit) in COS7 cells expressing hCTR2
Format: cell-based
Excerpt: The cell line COS7, originating from African Green Monkey kidney fibroblast cells, was used for establishment of the stable cell lines described below. The COS7 cellular background was used due to it being RAMP naive, and as such it provides the best available system for testing of the monomeric hCTR and different heterodimeric amylin receptor subtypes functionally generated by introduction of the individual RAMPs.
A cell line expressing the human calcitonin receptor (hCTR2) was generated in the COS7 cellular background as stable clones. In brief, hCTR2 (GI: 4502547) was amplified by PCR using primers encoding terminal restriction sites for subcloning. The 5'-end primers additionally encoded a near Kozak consensus sequence to ensure efficient translation. The fidelity of the DNA encoding the receptor was confirmed by DNA sequencing. The PCR products encoding the receptor were subcloned into a mammalian expression vector containing a neomycin (G418) resistance marker. The mammalian expression vector encoding the receptor was transfected into COS7 cells by a standard liposome transfection method. 48 hours post-transfection, cells were seeded for limited dilution cloning and selected with 1 mg/ml G418 in the culture medium. After 3 weeks, surviving colonies of hCTR2-expressing cells were picked, propagated and tested in the amylin efficacy assay as described in Example 3 below. One hCTR2-expressing clone was chosen for compound profiling.
In vitro activity of test peptides at the hCTR2 and hAMYR3 receptors was assessed by measuring the induction of cAMP following stimulation of the receptor by pramlintide or peptides of the invention using the AlphaScreen® cAMP Assay kit from Perkin-Elmer.
Briefly, COS7 cells expressing hCTR2 (see Example 2, above) were seeded at 30-40,000 cells per well in 96-well microtiter plates coated with 0.01 % poly-L-lysine, and grown for 1 day in culture in 100 µl growth medium [DMEM, 10% FCS, Penicillin (100 IU/ml), Streptomycin (100 µg/ml)]. On the day of analysis, growth medium was removed and the cells were washed once with 200 µl Tyrode buffer [Tyrode's Salts (9.6 g/l), 10 mM HEPES, pH 7.4]. Cells were incubated in 100 µl Tyrode buffer containing increasing concentrations of test peptides, 100 µM IBMX and 0.1% casein for 15 min at 37° C. The reaction was stopped by carefully decanting off the compound/buffer medium and replacing it with lysis/detection buffer (80 µl 0.1 % w/v BSA, 5 mM HEPES, 0.3 % v/v Tween-20 in deionized water). After incubation at room temperature for 10 min., the cAMP content of the resulting cell lysate was estimated according to the AlphaScreen® cAMP Assay manufacturer's instructions. EC50 values and relative efficacy values (in %) compared to reference peptide (Pramlintide) were estimated by computer-aided curve fitting using the 4-parameter logistic (4PL) non-linear model.
The in vitro activity results (expressed as EC50 values) for peptides of the invention and for Pramlintide (reference peptide) are summarized in Table 2, below.

Structure (SMILES)	EC50	EC50 (cAMP induction in COS7 cells expressing hCTR2, average of a minimum of 3 determinations, read-out: hCTR2 EC50)
CC[C@H](C)[C@@H](C(=O)N[C@@H](CC(C)C)C(=O)N[C@@H](CO)C(=O)N[C@@H](CO)C(=O)N[C@H](C(=O)N[C@@H](CC(N)=O)C(=O)N[C@H](C(=O)NCC(=O)N[C@@H](CO)C(=O)N[C@@H](CC(N)=O)C(=O)N[C@H](C(=O)N1CCC[C@H]1C(N)=O)[C@@H](C)O)C(C)C)[C@@H](C)O)N(C)C(=O)[C@H](C)NC(=O)CN(C)C(=O)[C@H](Cc1ccccc1)NC(=O)[C@H](CC(N)=O)NC(=O)[C@H](CC(N)=O)NC(=O)[C@H](CO)NC(=O)[C@H](CO)NC(=O)[C@H](Cc1c[nH]cn1)NC(=O)[C@H](Cc1c[nH]cn1)NC(=O)[C@H](CC(C)C)NC(=O)[C@H](Cc1ccccc1)NC(=O)[C@H](CCC(=O)O)NC(=O)[C@H](C)NC(=O)[C@H](CC(C)C)NC(=O)[C@H](CCCNC(=N)N)NC(=O)[C@H](CCC(N)=O)NC(=O)[C@@H](NC(=O)[C@H](C)NC(=O)[C@@H]1CSSC[C@H](NC(=O)[C@H](CCCCNC(=N)N)NC(=O)CC[C@H](NC(=O)CCCCCCCCCCCCCCCCCCC(=O)O)C(=O)O)C(=O)N[C@@H](CC(N)=O)C(=O)N[C@@H]([C@@H](C)O)C(=O)N[C@@H](C)C(=O)N[C@@H]([C@@H](C)O)C(=O)N1)[C@@H](C)O [Compound 43, [19CD]-isoGlu-HarC()NTATC()ATQRLAEFLHHSSNNF-Gly(Me)-A-Ile(Me)-LSSTNVGSNTP-NH2] ({C20 diacid-γGlu}-[hArg]CNTATCATQRLAEFLHHSSNNF[Sar]A[NMeI]LSSTNVGSNTP-NH2; disulfide 2-7)	0.1 nM	–
CC[C@H](C)[C@@H](C(=O)N[C@@H](CC(C)C)C(=O)N[C@@H](CO)C(=O)N[C@@H](CO)C(=O)N[C@H](C(=O)N[C@@H](CC(N)=O)C(=O)N[C@H](C(=O)NCC(=O)N[C@@H](CO)C(=O)N[C@@H](CC(N)=O)C(=O)N[C@H](C(=O)N1CCC[C@H]1C(N)=O)[C@@H](C)O)C(C)C)[C@@H](C)O)N(C)C(=O)[C@H](C)NC(=O)CN(C)C(=O)[C@H](Cc1ccccc1)NC(=O)[C@H](CC(N)=O)NC(=O)[C@H](CC(N)=O)NC(=O)[C@H](CO)NC(=O)[C@H](CO)NC(=O)[C@H](Cc1c[nH]cn1)NC(=O)[C@H](Cc1c[nH]cn1)NC(=O)[C@H](CC(C)C)NC(=O)[C@H](Cc1ccccc1)NC(=O)[C@@H](CCC(=O)O)NC(=O)[C@H](C)NC(=O)[C@H](CC(C)C)NC(=O)[C@H](CCCNC(=N)N)NC(=O)[C@H](CCC(N)=O)NC(=O)[C@@H](NC(=O)[C@H](C)NC(=O)[C@@H]1CSSC[C@H](NC(=O)[C@H](CCCNC(=N)N)NC(=O)CC[C@H](NC(=O)CCCCCCCCCCCCCCCCCCC(=O)O)C(=O)O)C(=O)N[C@@H](CC(N)=O)C(=O)N[C@@H]([C@@H](C)O)C(=O)N[C@@H](C)C(=O)N[C@@H]([C@@H](C)O)C(=O)N1)[C@@H](C)O [Compound 8, [19CD]-isoGlu-RC()NTATC()ATQRLA-DGlu-FLHHSSNNF-Gly(Me)-A-Ile(Me)-LSSTNVGSNTP-NH2] ({C20 diacid-γGlu}-RCNTATCATQRLA[dE]FLHHSSNNF[Sar]A[NMeI]LSSTNVGSNTP-NH2; disulfide 2-7)	2.6 nM	–
CC[C@H](C)[C@@H](C(=O)N[C@@H](CC(C)C)C(=O)N[C@@H](CO)C(=O)N[C@@H](CO)C(=O)N[C@H](C(=O)N[C@@H](CC(N)=O)C(=O)N[C@H](C(=O)NCC(=O)N[C@@H](CO)C(=O)N[C@@H](CC(N)=O)C(=O)N[C@H](C(=O)N1CCC[C@H]1C(N)=O)[C@@H](C)O)C(C)C)[C@@H](C)O)N(C)C(=O)[C@H](C)NC(=O)CN(C)C(=O)[C@H](Cc1ccccc1)NC(=O)[C@H](CC(N)=O)NC(=O)[C@H](CC(N)=O)NC(=O)[C@H](CO)NC(=O)[C@H](CO)NC(=O)[C@H](Cc1c[nH]cn1)NC(=O)[C@H](Cc1c[nH]cn1)NC(=O)[C@H](CC(C)C)NC(=O)[C@H](Cc1ccccc1)NC(=O)[C@H](CCC(=O)O)NC(=O)[C@@H](C)NC(=O)[C@H](CC(C)C)NC(=O)[C@H](CCCNC(=N)N)NC(=O)[C@H](CCC(N)=O)NC(=O)[C@@H](NC(=O)[C@H](C)NC(=O)[C@@H]1CSSC[C@H](NC(=O)[C@H](CCCNC(=N)N)NC(=O)CC[C@H](NC(=O)CCCCCCCCCCCCCCCCCCC(=O)O)C(=O)O)C(=O)N[C@@H]([C@@H](C)O)C(=O)N[C@@H](C)C(=O)N[C@@H]([C@@H](C)O)C(=O)N1)[C@@H](C)O [Compound 7, [19CD]-isoGlu-RC()TATC()ATQRL-DAla-EFLHHSSNNF-Gly(Me)-A-Ile(Me)-LSSTNVGSNTP-NH2] ({C20 diacid-γGlu}-RCTATCATQRL[dA]EFLHHSSNNF[Sar]A[NMeI]LSSTNVGSNTP-NH2; disulfide 2-6)	1.9 nM	–
CC[C@H](C)[C@@H](C(=O)N[C@@H](CC(C)C)C(=O)N[C@@H](CO)C(=O)N[C@@H](CO)C(=O)N[C@H](C(=O)N[C@@H](CC(N)=O)C(=O)N[C@H](C(=O)NCC(=O)N[C@@H](CO)C(=O)N[C@@H](CC(N)=O)C(=O)N[C@H](C(=O)N1CCC[C@H]1C(N)=O)[C@@H](C)O)C(C)C)[C@@H](C)O)N(C)C(=O)[C@H](C)NC(=O)CN(C)C(=O)[C@H](Cc1ccccc1)NC(=O)[C@H](CC(N)=O)NC(=O)[C@H](CC(N)=O)NC(=O)[C@H](CO)NC(=O)[C@H](CO)NC(=O)[C@H](Cc1c[nH]cn1)NC(=O)[C@@H](Cc1c[nH]cn1)NC(=O)[C@H](CC(C)C)NC(=O)[C@H](Cc1ccccc1)NC(=O)[C@H](CCC(=O)O)NC(=O)[C@H](C)NC(=O)[C@H](CC(C)C)NC(=O)[C@H](CCCNC(=N)N)NC(=O)[C@H](CCC(N)=O)NC(=O)[C@@H](NC(=O)[C@H](C)NC(=O)[C@@H]1CSSC[C@H](NC(=O)[C@H](CCCNC(=N)N)NC(=O)CC[C@H](NC(=O)CCCCCCCCCCCCCCCCCCC(=O)O)C(=O)O)C(=O)N[C@@H](CC(N)=O)C(=O)N[C@@H]([C@@H](C)O)C(=O)N[C@@H](C)C(=O)N[C@@H]([C@@H](C)O)C(=O)N1)[C@@H](C)O [Compound 11, [19CD]-isoGlu-RC()NTATC()ATQRLAEFL-DHis-HSSNNF-Gly(Me)-A-Ile(Me)-LSSTNVGSNTP-NH2] ({C20 diacid-γGlu}-RCNTATCATQRLAEFL[dH]HSSNNF[Sar]A[NMeI]LSSTNVGSNTP-NH2; disulfide 2-7)	2.3 nM	–
CC[C@H](C)[C@@H](C(=O)N[C@@H](CC(C)C)C(=O)N[C@@H](CO)C(=O)N[C@@H](CO)C(=O)N[C@H](C(=O)N[C@@H](CC(N)=O)C(=O)N[C@H](C(=O)NCC(=O)N[C@@H](CO)C(=O)N[C@@H](CC(N)=O)C(=O)N[C@H](C(=O)N1CCC[C@H]1C(N)=O)[C@@H](C)O)C(C)C)[C@@H](C)O)N(C)C(=O)[C@H](C)NC(=O)[C@H](C)NC(=O)[C@H](Cc1ccccc1)NC(=O)[C@H](CC(N)=O)NC(=O)[C@H](CC(N)=O)NC(=O)[C@H](CO)NC(=O)[C@H](CO)NC(=O)[C@H](Cc1c[nH]cn1)NC(=O)[C@H](Cc1c[nH]cn1)NC(=O)[C@H](CC(C)C)NC(=O)[C@H](Cc1ccccc1)NC(=O)[C@H](CCC(=O)O)NC(=O)[C@H](C)NC(=O)[C@H](CC(C)C)NC(=O)[C@H](CCCNC(=N)N)NC(=O)[C@H](CCC(N)=O)NC(=O)[C@@H](NC(=O)[C@H](C)NC(=O)[C@@H]1CSSC[C@H](NC(=O)[C@H](CCCNC(=N)N)NC(=O)CC[C@H](NC(=O)CCCCCCCCCCCCCCCCCCC(=O)O)C(=O)O)C(=O)N[C@@H](CC(N)=O)C(=O)N[C@@H]([C@@H](C)O)C(=O)N[C@@H](C)C(=O)N[C@@H]([C@@H](C)O)C(=O)N1)[C@@H](C)O [Compound 16, [19CD]-isoGlu-RC()NTATC()ATQRLAEFLHHSSNNFAA-Ile(Me)-LSSTNVGSNTP-NH2] ({C20 diacid-γGlu}-RCNTATCATQRLAEFLHHSSNNFAA[NMeI]LSSTNVGSNTP-NH2; disulfide 2-7)	–	0.076 nM
